# Experimental data from US20150024955A1, “Methods of Identifying Modulators of Dephosphorylation of Histone Deacetylase” (THE J. DAVID GLADSTONE INSTITUTES, priority 2006, published 2015).
# Legend:
# [1] = system: HDAC7 (Ser155, Ser318, Ser448 phosphorylation); assay: HDAC7 phosphorylation by Western blot with antiphospho-HDAC7 antisera in DO11.10-HDAC7-Flag cells; assay type: cell-based, human
# Protocol: DO11.10-HDAC7-Flag cells were untreated or treated with either PMA or anti CD3 antibody for the indicated times. Total cellular extracts were prepared in 20 mM Hepes (pH 7.5), 10 mM EGTA, 22.5 mM MgCl2, 1% NP-40, 2 mM orthovanadate, 1 mM dithiothreitol, and 0.5 mM phenyl-methyl sulfonyl fluoride supplemented with protease inhibitors, and subjected to Western blot analysis.
# Antibodies against mouse HDAC7 phosphorylated at serine residues 178, 344 and 479 were generated (Sigma Genosys, INC., Houston Tex. 77216-1508, USA). Briefly, rabbits were immunized with KLH-conjugated peptides. The phosphopeptides used to generate the phosphor-specific antibodies were FPLRTV[pSer]EPNLKL for P-Ser178, RPLNRTR[pSer]EPLPPS for P-Ser344 and RPLSRTQ[pSer]SPAAPV for P-Ser479. [pSer] indicates the phosphate group on the conserved serine residues. HDAC7 phospho specific antibodies were purified from crude rabbit serum by double affinity purification with nonphosphorylated and phosphorylated peptide. The corresponding serine residues can be found in human HDAC7 at amino acid positions 155, 318, and 448, respectively.
# Using these antisera, the state of phosphorylation of HDAC7 following PMA treatment was assessed. […] Phosphatase treatment of immunoprecipitated HDAC7 abolished the reactivity of the different phosphor-HDAC7 antibodies confirming their specificity for phosphorylated HDAC7 (FIG. 6A).
# To test the possibility that HDAC7 became dephosphorylated by a phosphatase, cells were stimulated with PMA followed by the addition of okadaic acid, a phosphatase inhibitor, for the rest of the time course. Consistent with the hypothesis that HDAC7 is dephosphorylated by a phosphatase, okadaic acid treatment led to persistent phosphorylation of HDAC7 at each site up to 24 h (FIG. 6B).
# To further probe the role of myosin phosphatase in the dephosphorylation of HDAC7 in vivo, small interfering RNAs (siRNAs) specific for PP1β and MYPT1 were introduced into DO11.10 cells expressing HDAC7. With an siRNA control (siCo), HDAC7 was transiently phosphorylated in response to PMA, with a peak at 2 h, and rapidly dephosphorylated thereafter (FIG. 11B, left panel). […] Further, HDAC7 remained phosphorylated up to 8 h after PMA stimulation (FIG. 11B, right panel).
# [2] = system: Nur77; assay: Nur77 expression by Western blot in DO11.10 cells; details: after PMA treatment
# Protocol: SDS-PAGE and Western blot analysis were performed according to standard procedures. Western blots were developed with the ECL detection kit (Amersham Pharmacia Biotech, Piscataway, N.J.).
# [3] = system: HDAC7-GFP; assay: HDAC7-GFP subcellular localization by immunofluorescence microscopy in DO11.10 cells; assay type: cell-based
# Protocol: DO11.10 cells (5×10^6) were nucleofected with an HDAC7-GFP expression vector together with either siRNA control or siRNAs for PP1β and MYPT1. Cells ([…]) were seeded onto poly-L-lysine-coated coverslips 12 h after nucleofection and allowed to attach for 12 h. Cells were stimulated with 10 ng/ml PMA. HDAC7 was localized by immunofluorescence microscopy with a confocal fluorescence microscope (Olympus BX60, Bio-Rad).
# To determine whether the changes in HDAC7 phosphorylation affected the subcellular localization of the protein, the fate of an HDAC7-GFP fusion protein in response to PMA was followed. […] The subcellular localization of HDAC7 also closely paralleled serine 155, serine 318, and serine 448 phosphorylation. While resting cells […] nuclear exclusion of HDAC7, more than 75% of activated cells excluded HDAC7 from the nucleus at 2 hours after stimulation (FIG. 7A). However, this exclusion was transient and HDAC7 progressively returned to the nucleus over the next few hours (FIGS. 7A, 7B). Significant reimport of HDAC7-GFP into the nucleus occurred at 4 h after PMA treatment, a time course that paralleled HDAC7 dephosphorylation (FIGS. 7A, 7B). […] Phosphatases have been predicted to regulate the nucleo-cytoplasmic shuttling of other class IIa HDAC, such as HDAC4, 5, and 9 for some time but have not been identified so far. […]
Structure (SMILES),"HDAC7 phosphorylation at each serine after treatment ([1]; DO11.10 stably expressing HDAC7-Flag, Western blot of immunoprecipitated HDAC7)","start of progressive decrease in HDAC7 phosphorylation after treatment ([1]; all three serine residues, total HDAC7 content unchanged) [h]","time of maximum (full) HDAC7 phosphorylation after stimulation ([1]; time course, DO11.10-HDAC7-Flag cells) [h]",time of peak Nur77 induction [2] [h],percentage of cells excluding HDAC7 from the nucleus ([3]; 2 hours after stimulation),percentage of cells showing nuclear exclusion of HDAC7 ([3]; 24 hours after stimulation) [%],"time up to which HDAC7 remained phosphorylated after PMA stimulation ([1]; agent applied together with PMA stimulation, DO11.10-HDAC7-Flag cells)"
CCCCCCCCCCCCCC(=O)O[C@@H]1[C@@H](C)[C@@]2(O)[C@@H](C=C(CO)C[C@]3(O)C(=O)C(C)=C[C@@H]23)[C@@H]2C(C)(C)[C@]12OC(C)=O [PMA],increased HDAC7 phosphorylation at each serine,4,1 to 2,2,more than 75%,< 20,–
C=C1[C@@H](O)[C@@H]2O[C@]3(CC[C@H](/C=C/[C@@H](C)[C@@H]4CC(C)=C[C@@]5(O[C@H](C[C@@](C)(O)C(=O)O)CC[C@H]5O)O4)O3)CC[C@H]2O[C@@H]1[C@@H](O)C[C@H](C)[C@H]1O[C@@]2(CCCCO2)CC[C@H]1C [okadaic acid],–,–,–,–,–,–,up to 24 h
